From patent US6531453B1, “NKT cell activators containing α-glycosylceramides” (Kirin Beera Kabushiki Kaisha, priority 1997, dated 2003)

Tests used:
[1] = test system: spleen cells of RAG-1KO/Vα14tg/Vβ8.2tg mice (NKT cells); test: Stimulation of NKT cell proliferation, [3H]thymidine incorporation in spleen cells; assay type: cell-based, mouse; conditions: 2 days incubation
Protocol: Stimulation of NKT cell proliferation by compounds having an α-glycosylceramide structure was studied using spleen cells of RAG-1KO/Vα14tg/Vβ8.2tg mice shown in Pharmacological Test Example 1.
Spleen cells were prepared from the spleen of RAG-1KO/Vα14tg/Vβ8.2tg mice by conventional methods. These spleen cells were suspended at 2×10^6 cells/ml in an RPMI 1640 medium supplemented with 10% FCS, and 100 μl each of the suspension were plated into wells of 96-well round-bottomed plates. Ten different kinds of compounds having an α-glycosylceramide structure shown in FIG. 12 were added to the wells of the plates at a final concentration of 1, 10 or 100 ng/ml, and the plates were incubated for 2 days. Sixteen hours after the addition of [^3H] thymidine (0.5 μCi/well), the cells were harvested. The amount of [^3H] thymidine incorporated into the cells was measured by a liquid scintillation counter.

Vα24+ NKT cells = test: Stimulation of Vα24+ NKT cell proliferation, autologous mixed leukocyte reaction with treated antigen-presenting cells; assay type: cell-based, human; conditions: antigen-presenting cells treated with 100 ng/ml, FIG. 9
Protocol: Peripheral blood mononuclear cells of a normal human were cultured for 4 days in an AIM medium supplemented with 10% FCS with the addition of GM-CSF (400 U/ml), IL-4 (200 U/ml) and KRN 7000 (100 ng/ml) to prepare antigen-presenting cells.
An autologous mixed leukocyte reaction (MLR) was performed using these antigen-presenting cells as stimulator cells and autologous peripheral blood mononuclear cells as responder cells. After incubation for 10 days, IL-2 (5 U/ml) was added, incubation was continued for another 4 days, and the cells were harvested. Next, CD4, CD8 double negative cells were recovered from these harvested cells and subjected to the phenotype analysis. The phenotypic analysis was expressed by fluorescence intensity of labeled antibodies against cells having various phenotypes.
The cells were cultured using IL-2 (5 U/ml) to stimulate the proliferation of Vα24^+ NKT cells, which were used as responder cells in the following autologous mixed leukocyte reaction. Autologous peripheral blood mononuclear cells were cultured for 4 days with the addition of GM-CSF +IL-4 and 100 ng/ml of KRN 7000, AGL-583 (β-galactosylceramide, β-GalCer) or 0.1% DMSO (vehicle) to prepare antigen-presenting cells. An autologous mixed leukocyte reaction was carried out using these antigen-presenting cells as stimulator cells. […]

mice ((CBAxDBA/2)F1) = test: Induction of abortion in (CBAxDBA/2)F1 mice; assay type: in vivo, mouse; conditions: same amount of IL-12, same manner
Protocol: C57BL/6 mice (Japan SLC) were used for the following experiment. The day when a vaginal plug was observed was defined as day 0. Pregnant mice were divided into 2 groups (6 mice per group), i.e., one group to which 150 μg/kg of KRN 7000 were intravenously administered on days 7, 8 and 9, and another to which PBS (phosphate-buffered saline) was administered in the same way. On day 12, the uterus was removed to observe the state of the embryo.
IL-12 is also known to activate NKT cells. When the same amount of IL-12 was administered to mice ((CBAxDBA/2)F1) in the same manner, the resulting abortion rate was 34%.

[2] = test system: 4% DSS-induced mouse colitis (CDF1 mice); test: Suppression of 4% DSS-induced mouse colitis; assay type: in vivo; conditions: KRN 7000 100 μg/kg i.p. days 1, 5, 9, IL-12 1 μg/mouse i.p. days 1, 3, 5, 7, 9
Protocol: Ten animals per group of CDF1 mice (6 weeks of age, females) (Japan SLC Inc.) were used for the following experiment. Day 0 was defined as the day when a 4% DSS solution (4% (w/v) dextran sodium sulfate (DSS) dissolved in water) was first provided as drinking water. The animals were divided into 3 groups, i.e., a group to which 100 μg/kg of KRN 7000 were intraperitoneally administered on days 1, 5, and 9, a group to which 1 μg/mouse of IL-12 was intraperitoneally administered on days 1, 3, 5, 7 and 9, and an untreated (control) group. Body weight was measured and survival or death of the animals were observed daily. Changes in body weight and survival rate are shown in FIG. 5A and 5B, respectively.

## CCCCCCCCCCCCCCC[C@@H](O)[C@H](CO[C@H]1O[C@H](CO)[C@H](O)[C@H](O)[C@H]1O)NC(=O)CCCCCCCCCCCCC [AGL517, (2S,3R)-1-(α-D-galactopyranosyloxy)-2-tetradecanoyl amino-3-octadecanol]
[1]; 1 ng/ml, vehicle 2090
  [3H] Thymidine incorporation (cpm): 3176 cpm
[1]; 10 ng/ml, vehicle 2056
  [3H] Thymidine incorporation (cpm): 15583 cpm
[1]; 100 ng/ml, vehicle 2014
  [3H] Thymidine incorporation (cpm): 83169 cpm

## CCCCCCCCCCCCCCCCCCCCCC[C@@H](O)C(=O)N[C@@H](CO[C@H]1O[C@H](CO)[C@H](O)[C@H](O)[C@H]1O[C@H]1O[C@H](CO)[C@H](O)[C@H](O)[C@H]1O)[C@H](O)[C@H](O)CCCCCCCCCCCCCC [S1140B-9, O-α-D-galactopyranosyl-(1→2)-O-α-D-galactopyranosyl-(1→1)-(2S,3S,4R)-2-amino-N-[(R)-2-hydroxytetracosanoyl]-1,3,4-octadecanetriol]
[1]; 1 ng/ml, vehicle 2090
  [3H] Thymidine incorporation (cpm): 3387 cpm
[1]; 10 ng/ml, vehicle 2056
  [3H] Thymidine incorporation (cpm): 10265 cpm
[1]; 100 ng/ml, vehicle 2014
  [3H] Thymidine incorporation (cpm): 49520 cpm

## CCCCCCCCCCCCCCC[C@@H](O)[C@H](CO[C@H]1OC[C@H](O)[C@H](O)[C@H]1O)NC(=O)CCCCCCCCCCCCC [AGL577, (2S,3R)-1-(β-L-arabinopyranosyloxy)-2-tetradecanoyl amino-3-octadecanol]
[1]; 1 ng/ml, vehicle 2090
  [3H] Thymidine incorporation (cpm): 2083 cpm
[1]; 10 ng/ml, vehicle 2056
  [3H] Thymidine incorporation (cpm): 7792 cpm
[1]; 100 ng/ml, vehicle 2014
  [3H] Thymidine incorporation (cpm): 49701 cpm

## CCCCCCCCCCCCCCC[C@@H](O)[C@H](CO[C@H]1O[C@H](CO)[C@@H](O)[C@H](O)[C@H]1O)NC(=O)CCCCCCCCCCCCC [AGL563, (2S,3R)-1-(α-D-glucopyranosyloxy)-2-tetradecanoyl amino-3-octadecanol]
[1]; 1 ng/ml, vehicle 2090
  [3H] Thymidine incorporation (cpm): 2063 cpm
[1]; 10 ng/ml, vehicle 2056
  [3H] Thymidine incorporation (cpm): 3773 cpm
[1]; 100 ng/ml, vehicle 2014
  [3H] Thymidine incorporation (cpm): 13131 cpm

## CCCCCCCCCCCCCCCCCCCCCC[C@@H](O)C(=O)N[C@@H](CO[C@H]1O[C@H](CO)[C@H](O)[C@H](O[C@@H]2O[C@@H]([C@H](O)CO)[C@H](O)[C@H]2O)[C@H]1O)[C@H](O)[C@H](O)CCCCCCCCCCCCCC [719-7, O-β-D-galactofuranosyl-(1→3)-O-α-D-galactopyranosyl-(1→1)-(2S,3S,4R)-2-amino-N-[(R)-2-hydroxytetracosanoyl]-1,3,4-octadecanetriol]
[1]; 1 ng/ml, vehicle 2090
  [3H] Thymidine incorporation (cpm): 5287 cpm
[1]; 10 ng/ml, vehicle 2056
  [3H] Thymidine incorporation (cpm): 30179 cpm
[1]; 100 ng/ml, vehicle 2014
  [3H] Thymidine incorporation (cpm): 60528 cpm

## β-galactosylceramide [reference compound]
Vα24+ NKT cells
  effect of treated antigen presenting cells on Vα24+ NKT cell proliferation ([3H]thymidine uptake): no effect

## CCCCCCCCCCCCCCC[C@@H](O)[C@H](CO[C@H]1O[C@H](C)[C@H](O)[C@H](O)[C@H]1O)NC(=O)CCCCCCCCCCCCC [AGL571, (2S,3R)-1-(6′-deoxy-α-D-galactopyranosyloxy)-2-tetra decanoylamino-3-octadecanol]
[1]; 1 ng/ml, vehicle 2090
  [3H] Thymidine incorporation (cpm): 3969 cpm
[1]; 10 ng/ml, vehicle 2056
  [3H] Thymidine incorporation (cpm): 17848 cpm
[1]; 100 ng/ml, vehicle 2014
  [3H] Thymidine incorporation (cpm): 118092 cpm

## CCCCCCCCCCCCCCCCCCCCCCCCCC(=O)N[C@@H](CO[C@H]1O[C@H](CO[C@H]2O[C@H](CO)[C@H](O)[C@H](O)[C@H]2O)[C@@H](O)[C@H](O)[C@H]1O)[C@H](O)[C@H](O)CCCCCCCCCCCCCC [AGL584, O-α-D-galactopyranosyl-(1→6)-O-α-D-glucopyranosyl-(1→1)-(2S,3S,4R)-2-amino-N-hexacosanoyl-1,3,4-octadecane triol]
[1]; 1 ng/ml, vehicle 2090
  [3H] Thymidine incorporation (cpm): 29331 cpm
[1]; 10 ng/ml, vehicle 2056
  [3H] Thymidine incorporation (cpm): 65084 cpm
[1]; 100 ng/ml, vehicle 2014
  [3H] Thymidine incorporation (cpm): 96783 cpm

## CCCCCCCCCCCCCCCCCCCCCCCCCC(=O)N[C@@H](CO[C@H]1O[C@H](CO[C@H]2O[C@H](CO)[C@H](O)[C@H](O)[C@H]2O)[C@H](O)[C@H](O)[C@H]1O)[C@H](O)[C@H](O)CCCCCCCCCCCCCC [AGL586, O-α-D-galactopyranosyl-(1→6)-O-α-D-galactopyranosyl-(1→1)-(2S,3S,4R)-2-amino-N-hexacosanoyl-1,3,4-octa decanetriol]
[1]; 1 ng/ml, vehicle 2090
  [3H] Thymidine incorporation (cpm): 5137 cpm
[1]; 10 ng/ml, vehicle 2056
  [3H] Thymidine incorporation (cpm): 39750 cpm
[1]; 100 ng/ml, vehicle 2014
  [3H] Thymidine incorporation (cpm): 102425 cpm

## CCCCCCCCCCCCCCCCCCCCCC[C@@H](O)C(=O)N[C@@H](CO[C@H]1O[C@H](CO)[C@H](O)[C@H](O[C@H]2O[C@H](CO)[C@H](O)[C@H](O)[C@H]2NC(C)=O)[C@H]1O[C@H]1O[C@H](CO)[C@@H](O)[C@H](O)[C@H]1O)[C@H](O)[C@H](O)CCCCCCCCCCCCCC [STL-8]
[1]; 1 ng/ml, vehicle 2090
  [3H] Thymidine incorporation (cpm): 4761 cpm
[1]; 10 ng/ml, vehicle 2056
  [3H] Thymidine incorporation (cpm): 26474 cpm
[1]; 100 ng/ml, vehicle 2014
  [3H] Thymidine incorporation (cpm): 47141 cpm

B1: IL-12: interleukin 12 (IL-12), known to activate NKT cells (protein, UniProt P29459 23-219; P29460 23-328, looked up)
Interleukin-12 subunit alpha: RNLPVATPDPGMFPCLHHSQNLLRAVSNMLQKARQTLEFYPCTSEEIDHEDITKDKTSTVEACLPLELTKNESCLNSRETSFITNGSCLASRKTSFMMALCLSSIYEDLKMYQVEFKTMNAKLLMDPKRQIFLDQNMLAVIDELMQALNFNSETVPQKSSLEEPDFYKTKIKLCILLHAFRIRAVTIDRVMSYLNAS
Interleukin-12 subunit beta: IWELKKDVYVVELDWYPDAPGEMVVLTCDTPEEDGITWTLDQSSEVLGSGKTLTIQVKEFGDAGQYTCHKGGEVLSHSLLLLHKKEDGIWSTDILKDQKEPKNKTFLRCEAKNYSGRFTCWWLTTISTDLTFSVKSSRGSSDPQGVTCGAATLSAERVRGDNKEYEYSVECQEDSACPAAEESLPIEVMVDAVHKLKYENYTSSFFIRDIIKPDPPKNLQLKPLKNSRQVEVSWEYPDTWSTPHSYFSLTFCVQVQGKSKREKKDRVFTDKTSATVICRKNASISVRAQDRYYSSSWSEWASVPCS
Mice ((CBAxDBA/2)F1)
  abortion rate: 34%
[2]; FIG. 5A
  time of weight loss as compared with the control group: at an extremely early period
[2]; FIG. 5B
  survival period as compared with the control group: significantly shorter
